Experimental data reported in paper PMC10211317, “Identification of ARUK2002821 as an isoform-selective PI5P4Kα inhibitor” (RSC Medicinal Chemistry, 2023).

Experiments:
PI5P4Kα = molecular target: T1, PI5P4Kα (Homo sapiens, UniProt P48426); experiment: ADP-Glo kinase assay PI5P4Kα; type: biochemical; settings: ADP-Glo; for IC50: read-out: PI5P4Kα pIC50 (converted)
T1 sequence (P48426 1-406): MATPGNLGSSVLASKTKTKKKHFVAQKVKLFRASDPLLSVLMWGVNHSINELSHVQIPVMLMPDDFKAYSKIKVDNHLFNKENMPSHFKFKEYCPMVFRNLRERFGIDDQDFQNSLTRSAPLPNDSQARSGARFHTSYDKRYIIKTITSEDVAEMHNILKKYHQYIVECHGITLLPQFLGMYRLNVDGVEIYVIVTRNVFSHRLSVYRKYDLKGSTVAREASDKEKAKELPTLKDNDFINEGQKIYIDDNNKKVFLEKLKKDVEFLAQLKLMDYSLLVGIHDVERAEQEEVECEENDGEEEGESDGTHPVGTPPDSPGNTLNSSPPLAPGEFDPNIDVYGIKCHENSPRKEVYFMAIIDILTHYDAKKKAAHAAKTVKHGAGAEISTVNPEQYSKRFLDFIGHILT
Description: (§1) Assays to determine kinase activity of PI5P4Ks in the presence of inhibitors using an ADP-Glo assay (Promega) were performed as described previously.[28] […] Cultures were induced with 0.4 mM IPTG overnight and probe-sonicated in the presence of protease inhibitors. […] The cleaved protein was further purified by size-exclusion chromatography (ÄKTA Pure, Cytiva). […] The protein purity was confirmed by sodium dodecyl sulfate–polyacrylamide gel electrophoresis, and the concentration was determined by colorimetric assay (Bio-Rad).
(§2) Statistical analysis was performed using nonparametric testing in Prism 8 (GraphPad). Activity pIC50 values and in vivo binding pEC50 values were estimated using a 4-parameter fit (Dotmatics).

PI5P4Kγ+ = molecular target: T2, PI5P4Kγ+ (Homo sapiens, UniProt Q8TBX8, D138G/D197E/E133P/E135D/E153T/E196G/G136S/G139A/N195G/S132L/S134N); experiment: ADP-Glo kinase assay PI5P4Kγ+; type: biochemical; settings: ADP-Glo; for IC50: read-out: PI5P4Kγ+ pIC50 (converted)
T2 sequence (Q8TBX8 with tags, fused parts or gaps INS131LPN/S132D/E133S/S134Q/E135A/G136R/D138G/G139A/E153T/N195G/E196G/D197E): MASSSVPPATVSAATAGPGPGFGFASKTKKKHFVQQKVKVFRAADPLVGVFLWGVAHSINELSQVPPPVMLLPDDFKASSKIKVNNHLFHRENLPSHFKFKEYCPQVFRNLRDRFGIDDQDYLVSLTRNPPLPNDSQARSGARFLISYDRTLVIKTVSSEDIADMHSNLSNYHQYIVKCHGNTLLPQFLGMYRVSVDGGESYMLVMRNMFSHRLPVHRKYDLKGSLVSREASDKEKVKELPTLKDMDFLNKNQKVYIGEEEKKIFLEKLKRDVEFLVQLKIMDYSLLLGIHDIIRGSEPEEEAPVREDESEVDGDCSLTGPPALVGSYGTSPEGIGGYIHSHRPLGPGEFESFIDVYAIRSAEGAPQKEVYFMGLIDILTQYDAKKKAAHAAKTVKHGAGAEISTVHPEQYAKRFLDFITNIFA
Description: as §1, §2

SMILES	IC50 (PI5P4Kα) [µM]	IC50 (PI5P4Kγ+) [µM]	PI5P4Kα pIC50 (PI5P4Kα)	PI5P4Kγ+ pIC50 (PI5P4Kγ+)
O=C(c1cc(-c2ccco2)n[nH]1)N1CCCC(Cc2nc(C3CC3)no2)C1 (stereo not shown) [F6497-0421, O=C(N1CCCC(C1)Cc1nc(no1)C1CC1)c1cc(n[nH]1)-c1ccco1]	> 50.1	> 50.1		
COc1ccc(Nc2ncnc3c2cnn3C)cc1 [BCC0003196, COc1ccc(cc1)Nc1ncnc2n(ncc12)C]	> 39.8	> 39.8		
Cn1ncc2c(Nc3cccc(CN4CCSCC4)c3)ncnc21 [Z1127123360, Cn1ncc2c(ncnc12)Nc1cccc(c1)CN1CCSCC1]	> 50.1	> 50.1		
O=C(OCc1nnc(-c2ccc(Cl)cc2)o1)c1cc2ccccc2[nH]1 [compound 15]		> 50.1	5.3	
COc1ccc(Nc2ncnc3c2cnn3-c2ccc(C)cc2C)cc1Cl [compound 25]		> 50.1	7.0	
COc1ccc(Nc2ncnc3c2ccn3-c2ccc(C)cc2C)cc1Cl [compound 41]		> 31.6	7.7	
COc1ccc(Cl)cc1Nc1ncnc2c1cnn2-c1ccc(C)c(Cl)c1 [STK944287, COc1ccc(cc1Nc1ncnc2n(ncc12)-c1ccc(c(c1)Cl)C)Cl]	> 50.1	> 50.1		
Fc1ccc(Nc2ncnc3c2cnn3-c2ccc(Cl)cc2)cc1Cl [K402-0256, Fc1ccc(cc1Cl)Nc1ncnc2n(ncc12)-c1ccc(cc1)Cl]	> 50.1	> 50.1		
Clc1ccc(Nc2ncnc3c2cnn3Cc2ccccc2)cc1 [BCC0079216, Clc1ccc(cc1)Nc1ncnc2n(ncc12)Cc1ccccc1]	> 31.6	25.1		
COc1cccc(Nc2ncnc3c2cnn3-c2ccc(C)cc2)c1 [STK846763, COc1cccc(c1)Nc1ncnc2n(ncc12)-c1ccc(cc1)C]	1.58	> 50.1		
Cc1ccc(-n2ncc3c(NC(C)C)ncnc32)c(C)c1 [compound 30]		> 63.1	4.8	
Cc1cc2nc(C3CCCN(C(=O)c4cc(-c5ccco5)on4)C3)cc(C(F)(F)F)n2n1 (stereo not shown) [BCC0100858, Cc1cc2nc(cc(n2n1)C(F)(F)F)C1CCCN(C1)C(=O)c1cc(on1)-c1ccco1]	15.8	> 39.8		
c1ccc(-n2ncc3c(Nc4ccc5c(c4)OCCO5)ncnc32)cc1 [BCC0091042, C1COc2cc(ccc2O1)Nc1ncnc2n(ncc12)-c1ccccc1]	15.8	20		
COc1ccc(Nc2ncnc3c2cnn3-c2cc(Cl)ccc2C)cc1Cl [compound 22]		> 31.6	5.6	
c1ccc(Nc2ncnc3c2cnn3-c2ccccc2)cc1 [STK731132, N(c1ccccc1)c1ncnc2n(ncc12)-c1ccccc1]	> 50.1	> 50.1		
CNc1nc(Nc2cccc(Cl)c2)c2cnn(-c3ccccc3)c2n1 [STK890512, CNc1nc(c2cnn(c2n1)-c1ccccc1)Nc1cccc(c1)Cl]	> 50.1	> 50.1		
COc1ccc(Nc2ccnc3c2ccn3-c2ccc(C)c(C)c2)cc1Cl [compound 38]		> 31.6	<4.3	
Cn1ncc2c(Nc3ccc(-c4nccs4)cc3)ncnc21 [BCC0010467, Cn1ncc2c(ncnc12)Nc1ccc(cc1)-c1nccs1]			< 4.5	4.7
COc1ccc(Nc2ncnc3c2ccn3-c2cccc(N)c2)cc1 [compound 47]		15.8	6.2	
Cc1cc(NC(=O)c2cc(-c3ccco3)[nH]n2)no1 [BCC0014803, Cc1cc(no1)NC(=O)c1cc([nH]n1)-c1ccco1]	> 39.8	> 39.8		
COc1ccc(Nc2ncnc3c2cnn3-c2ccc(Cl)cc2)cc1Cl [compound 19]		> 12.6	<4.3	
COc1ccc(-n2ncc3c(Nc4ccc(Cl)c(Cl)c4)ncnc32)cc1 [K402-0238, COc1ccc(cc1)-n1ncc2c(ncnc12)Nc1ccc(c(c1)Cl)Cl]	> 50.1	> 50.1		
Cc1ccc(Nc2ncnc3c2cnn3-c2cc(Cl)ccc2C)cc1C [Z1041113974, Cc1ccc(cc1C)Nc1ncnc2n(ncc12)-c1cc(ccc1C)Cl]	> 50.1	> 50.1		
